Source: patent US20240139210A1, “TREATMENT OF NF-KB-MEDIATED DISEASE” (ReveraGen BioPharma, Inc., priority 2020, published 2024)

Assays:
Type in all cases: in vivo, human
[1] = VBP15-002 multiple ascending dose trial, PK and safety
Experimental: Vamorolone clinical studies have been conducted in adult male volunteers and boys with DMD, a disorder in which skeletal muscle is in a chronic inflammatory state. Two consecutive open-label dose-ranging studies in 48 DMD patients aged 4 to <7 years (corticosteroid-naïve) were conducted (Phase IIa, VBP15-002; Phase IIa, VBP15-003). Doses were tested over a 24-fold dose range (0.25, 0.75, 2.0, and 6.0 mg/kg/day), with 12 participants per group. The first multiple ascending dose (MAD) cohort trial-tested pharmacokinetics (PK) and safety for 2 weeks of drug dosing followed by a 2-week washout (VBP15-002). […] All DMD participants completed the MAD study and then continued on the same dose for a 24-week dose-finding (efficacy and safety) extension study (VBP15-003).
VBP15-002 (Phase IIa; two weeks on the drug, two weeks off drug) enrolled 48 corticosteroid-naïve participants with DMD, and all 48 participants completed the study and enrolled into VBP15-003 (Phase IIa extension; 24-week treatment). Forty-six of 48 participants completed the VBP15-003 study (2 participants withdrew from VBP15-003 for reasons unrelated to the study drug). In addition, all participants (46/46) opted to enroll in the 24-month long-term extension study, VBP15-LTE.

participants with DMD [2] = experiment: VBP15-LTE Month 24 PODCI and skeletal maturation by wrist x-ray; conditions: for Bone Age difference to Chronologic Age, mean (SD): LTE Month 24, wrist x-ray
Source text: In addition, 39/41 LTE participants had wrist x-ray at Month 24; the mean bone age to chronologic age difference was −1.1 (p<0.001, CI −1.5, −0.7), indicating possible skeletal maturation delay (Table 7).
PODCI is the Pediatrics Outcomes Data Collection Instrument (musculoskeletal disorders). The PODCI is a disease-specific questionnaire developed by the American Academy of Orthopedic Surgeons to measure general health and problems related to bone and muscle conditions in children. A significant increase in mean PODCI upper extremity and physical function standardized score was observed from LTE baseline to Month 24 (7.95±12.54, CI 1.003, 14.897, p=0.0278, n=15) for the combined 2.0 and 6.0 mg/kg/day initial dose group. At the same time, a non-significant decrease in mean PODCI transfer and basic mobility standardized score was observed (−4.38±22.68, CI −16.471, 7.703, p=0.451, n=16) (Table 7).

participants with DMD [3] = experiment: Physician-reported adverse events in vamorolone trials (DSUR, DSMB report)
Experimental: Study visits took place quarterly, including assessment of clinical laboratory results, vital signs, and AEs. All AEs were coded using the Medical Dictionary for Regulatory Activities (MedDRA version 19.0) system for reporting (preferred term and system organ class). Clinical efficacy assessments were performed at baseline of the VBP15-002 study, at six months (end of VBP15-003 study), and the 12-month midpoint visit of the VBP15-LTE study.
A Data and Safety Monitoring Board report on the VBP15-LTE study covering all participants enrolled in the VBP15-LTE study (inclusive beyond the 12-month midpoint assessment) included three serious AEs (2 myoglobinuria events [in the same participant] and one pneumonia), all deemed unrelated to study drug. For all reported TEAEs, 402 were deemed unrelated to vamorolone, 37 were deemed remotely related, 29 were deemed possibly related, 11 were deemed probably related, and three were deemed definitely related. Of the 14 AEs probably and definitely related to vamorolone, 10 were weight gain, 2 were increased appetite, 1 was Cushingoid features, and 1 was irritability.
The incidences of physician-reported AEs typically for corticosteroid treatment were determined for participants that had been treated with vamorolone 6.0 mg/kg/day (for any duration), taken from the March 2019 Data Safety Update Report (DSUR) (pharmacovigilance report). Incidence rates of Cushingoid features, weight gain, hirsutism, and behavior change were studied (Table 8).

[4] = tested on: ambulant boys aged 4 to <7 years with DMD; experiment: VISION-DMD Phase 2b study VBP15-004, efficacy at 24 weeks
Experimental: (§1) The second period of 24 weeks, where all participants receive vamorolone treatment on either of the two dose levels, will continue to capture additional longer-term safety and tolerability data.
The study met its primary endpoint of superiority in the change of time to stand from supine positioning to standing (TTSTAND) velocity with vamorolone 6 mg/kg/day versus placebo (p=0.002) with a treatment difference of 0.06 [95% CI: 0.02-0.10] rises/second from baseline. […] Any number p<0.05 is considered significant.

[5] = tested on: ambulant boys aged 4 to <7 years with DMD; experiment: VBP15-004 growth (height Z scores)
Source text: as §1

[6] = LTE baseline to Month 24, combined 2.0 and 6.0 mg/kg/day initial dose group
[7] = assigned to high dose (2.0 and 6.0 mg/kg/day) at start of the study
[8] = 6.0 mg/kg/day vamorolone for any duration, n = 38
[9] = VBP15-LTE, DSMB report, all participants

Question: For `C[C@@H]1C[C@H]2[C@@H]3CCC4=CC(=O)C=C[C@]4(C)C3=CC[C@]2(C)[C@@]1(O)C(=O)CO` [Vamorolone, 17α,21-dihydroxy-16α-methylpregna-1,4,9(11)-triene-3,20-dione], which dose-limiting toxicities ([1]; 0.25-6.0 mg/kg/day, 2 weeks dosing) is on record?
Answer: Its dose-limiting toxicities is “no dose-limiting toxicities”.

Question: What about the drug accumulation ([1]; day 1 vs day 14) of the same compound?
Answer: Its drug accumulation is “no drug accumulation”.

Question: And the half-life ([1]; male, human, in vivo, oral, DMD patients aged 4 to <7 years, 0.25-6.0 mg/kg/day, 2 weeks dosing)?
Answer: The half-life was roughly 2 h.

Question: What about the “Bone Age difference to Chronologic Age, mean (SD)” value (participants with DMD [2]; n = 39) of the same compound?
Answer: Its value is −1.1 (1.2), yr.

Question: And the “Bone Age difference to Chronologic Age, mean (SD)” value (participants with DMD [2]; n = 39, listed as vamorolone)?
Answer: Its value is −1.1 yr.

Question: And the “PODCI transfer and basic mobility, change from baseline (SD)” value (participants with DMD [2]; [6])?
Answer: Its value is −4.38±22.68.

Question: And the “PODCI upper extremity and physical function, change from baseline (SD)” value (participants with DMD [2]; [6])?
Answer: Its value is 7.95±12.54.

Question: What about the “PODCI transfer and basic mobility, 24 months from LTE baseline, mean (SD)” value (participants with DMD [2]; [7]) of the same compound?
Answer: Its value is 81.4 (17.5), n = 18.

Question: And the “PODCI transfer and basic mobility, LTE baseline, mean (SD)” value (participants with DMD [2]; [7])?
Answer: Its value is 86.5 (9.2), n = 19.

Question: What about the “PODCI upper extremity and physical function, 24 months from LTE baseline, mean (SD)” value (participants with DMD [2]; [7]) of the same compound?
Answer: The value was 82.3 (10.9), n = 18.

Question: And the “PODCI upper extremity and physical function, LTE baseline, mean (SD)” value (participants with DMD [2]; [7])?
Answer: Its value is 75.3 (15.1), n = 18.

Question: What about the “LTE Month 24 Bone Age by wrist x-ray, mean (SD)” value (participants with DMD [2]; n = 39, chronologic age 8.0 (1.0) yr) of the same compound?
Answer: Its value is 6.8 (1.4), n = 39 yr.

Question: And the “Incidence of physician-reported Cushingoid” value (participants with DMD [3]; [8])?
Answer: Its value is 2.6%.

Question: What about the “Incidence of physician-reported behavior change” value (participants with DMD [3]; [8]) of the same compound?
Answer: The value was 0%^2.

Question: What about the “Incidence of physician-reported hypertrichosis/hirsutism” value (participants with DMD [3]; [8]) of the same compound?
Answer: The value was 0%.

Question: What about the “Incidence of physician-reported weight gain” value (participants with DMD [3]; [8]) of the same compound?
Answer: The value was 13.2%.

Question: And the “Cushingoid features among the 14 AEs probably and definitely related, number” value (participants with DMD [3]; VBP15-LTE, DSMB report)?
Answer: The value was 1.

Question: And the “increased appetite among the 14 AEs probably and definitely related, number” value (participants with DMD [3]; VBP15-LTE, DSMB report)?
Answer: Its value is 2.

Question: And the “irritability among the 14 AEs probably and definitely related, number” value (participants with DMD [3]; VBP15-LTE, DSMB report)?
Answer: The value was 1.

Question: And the “weight gain among the 14 AEs probably and definitely related, number” value (participants with DMD [3]; VBP15-LTE, DSMB report)?
Answer: The value was 10.

Question: What about the “TEAEs deemed definitely related, number” value (participants with DMD [3]; [9]) of the same compound?
Answer: Its value is “three”.

Question: And the “TEAEs deemed possibly related, number” value (participants with DMD [3]; [9])?
Answer: Its value is 29.

Question: And the “TEAEs deemed probably related, number” value (participants with DMD [3]; [9])?
Answer: The value was 11.

Question: And the “TEAEs deemed remotely related, number” value (participants with DMD [3]; [9])?
Answer: The value was 37.

Question: And the “TEAEs deemed unrelated to vamorolone, number” value (participants with DMD [3]; [9])?
Answer: The value was 402.

Question: And the “serious AEs, number” value (participants with DMD [3]; VBP15-LTE, DSMB report, all deemed unrelated to study drug)?
Answer: Its value is “three”.

Question: What about the “TTSTAND after treatment (baseline 6.0 seconds)” value ([4]; vamorolone 6 mg/kg/day) of the same compound?
Answer: The value was 4.6 s.

Question: What about the “TTSTAND velocity, treatment difference versus placebo in change from baseline” value ([4]; vamorolone 6 mg/kg/day) of the same compound?
Answer: Its value is 0.06 rises/second.

Question: What about the “difference between vamorolone and prednisone across TTSTAND, 6MWT, TTRW endpoints” value ([4]; vamorolone 6 mg/kg/day vs prednisone 0.75 mg/kg/day) of the same compound?
Answer: The value was “no statistically significant differences”.

Question: And the “change in height Z scores from baseline to Week 24” value ([5]; vamorolone 2.0 mg/kg/day)?
Answer: Its value is “overall stable height change Z scores”.

Question: And the “change in height Z scores from baseline to Week 24” value ([5]; vamorolone 6.0 mg/kg/day)?
Answer: Its value is “increased growth rate”.
